Measured values reported in patent US5958965A, “4-aminoethoxy indoles” (American Home Products Corporation, priority 1997, dated 1999).
Read-outs that look alike come from different tables or passages of the source.

Legend:
dopamine D-2 receptor = target: T1, dopamine D-2 receptor (Rattus norvegicus, UniProt P61169); test: Affinity for the dopamine D-2 receptor, 3H-spiroperidol binding in homogenized limbic brain tissue
T1 construct: homogenized limbic brain tissue is incubated with; from tissue; host or cells: limbic brain tissue, homogenized
T1 sequence (P61169 whole entry): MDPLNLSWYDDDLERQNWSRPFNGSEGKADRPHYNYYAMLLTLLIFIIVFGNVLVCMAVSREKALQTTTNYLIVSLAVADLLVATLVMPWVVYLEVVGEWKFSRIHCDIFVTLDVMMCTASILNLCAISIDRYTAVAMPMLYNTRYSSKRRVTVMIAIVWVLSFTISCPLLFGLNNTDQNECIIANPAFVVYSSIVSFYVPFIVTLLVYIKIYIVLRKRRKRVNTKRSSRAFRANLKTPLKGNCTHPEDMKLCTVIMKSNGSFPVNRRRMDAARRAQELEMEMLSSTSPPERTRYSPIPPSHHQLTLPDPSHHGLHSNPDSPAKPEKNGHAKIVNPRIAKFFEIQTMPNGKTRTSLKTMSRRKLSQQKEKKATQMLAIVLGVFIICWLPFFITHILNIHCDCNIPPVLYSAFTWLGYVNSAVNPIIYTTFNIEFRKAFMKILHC

[1] = target: T2, 5-HT1A serotonin receptor (Rattus norvegicus, UniProt P19327); test: Displacement of [3H] 8-OHDPAT from the 5-HT1A serotonin receptor; assay type: binding
T2 sequence (P19327 1-422): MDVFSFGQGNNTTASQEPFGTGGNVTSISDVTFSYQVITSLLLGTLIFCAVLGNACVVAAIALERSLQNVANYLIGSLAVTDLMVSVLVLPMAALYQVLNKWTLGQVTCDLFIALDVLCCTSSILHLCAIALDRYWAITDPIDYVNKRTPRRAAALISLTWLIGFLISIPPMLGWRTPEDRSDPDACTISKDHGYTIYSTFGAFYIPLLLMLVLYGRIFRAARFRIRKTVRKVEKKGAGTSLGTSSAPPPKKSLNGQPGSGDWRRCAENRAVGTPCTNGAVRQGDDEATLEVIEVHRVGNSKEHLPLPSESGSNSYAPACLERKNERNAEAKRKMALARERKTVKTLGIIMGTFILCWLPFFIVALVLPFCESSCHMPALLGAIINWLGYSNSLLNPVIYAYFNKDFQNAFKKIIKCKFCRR
Excerpt: High affinity for the serotonin 5-HT1A receptor was established by testing the claimed compound's ability to displace [^3 H] 8-OHDPAT (dipropylaminotetralin) from the 5-HT1A serotonin receptor following the procedure of Hall et al., J. Neurochem. 44, 1685 (1985). […] The anxiolytic activity of buspirone is believed to be, at least partially, due to its 5-HT1A receptor affinity (Vander Maclen et al., Eur. J. Pharmacol. 1986, 129 (1-2) 133-130).

[2] = target: T2, 5-HT1A serotonin receptor; conditions: standard for anxiolytic activity, comparison substance; cited from earlier work
[3] = 3H-spiroperidol, limbic brain tissue, read-out: IC50 D2 Spiper

c1ccc(CCCCNCCOc2cccc3[nH]ccc23)cc1 [Example 1a, [2-(1 H-Indol-4-yloxy)-ethyl]-(4-phenyl-butyl)-amine] gave an IC50 (dopamine D-2 receptor) of 184 nM and an IC50 [1] of 0.71 nM.

Molecule Clc1ccc(OCCNCc2ccccc2)c2cc[nH]c12 [Example 1b, Benzyl-[2-(7-chloro-1H-indol-4-yloxy)-ethyl]-amine] has an IC50 (dopamine D-2 receptor) of 183 nM and an IC50 [1] of 386 nM.

Clc1ccc(OCCNCc2ccccc2)c2c(Cl)c[nH]c12 [Example 1c, Benzyl-[2-(3,7-dichloro-1H-indol-4-yloxy)-ethyl]-amine] showed an IC50 (dopamine D-2 receptor; [3]) of 284 nM and an IC50 [1] of 438 nM.

Molecule Clc1ccc(OCCNCc2cccs2)c2c(Cl)c[nH]c12 [Example 1f, Thien-2-ylmethyl-[2-(3,7-dichloro-1H-indol-4-yloxy)-ethyl]-amine] has an IC50 (dopamine D-2 receptor; [3]) of 405 nM.

In the case of Clc1c[nH]c2cccc(OCCNCCCCc3ccccc3)c12 [Example 2a, [2-(3-Chloro-1H-indol-4-yloxy)-ethyl]-(4-phenyl-butyl)-amine], the IC50 (dopamine D-2 receptor; [3]) is reported as 193 nM and the IC50 [1] is reported as 0.99 nM.

In the case of O=C(c1c[nH]c2c(Cl)ccc(OCCNCc3ccccc3)c12)C(F)(F)F [Example 2c, 1-[4-(2-Benzylamino-ethoxy)-7-chloro-1H-indol-3-yl]-2,2,2-trifluoro-ethanone], the IC50 [1] is reported as 102 nM.

O=C(c1c[nH]c2cccc(OCCNCc3ccccc3)c12)C(F)(F)F [Example 3a, 1-[4-(2-Benzylamino-ethoxy)-1H-indol-3-yl]-2,2,2-trifluoro-ethanone] gave an IC50 (dopamine D-2 receptor; [3]) of 286 nM and an IC50 [1] of 60 nM.

In the case of c1ccc(CNCCOc2cccc3[nH]ccc23)cc1 [Example 3b, N-Benzyl-[2-(1H-indol-4-yloxy)]-ethylamine], the IC50 (dopamine D-2 receptor) is reported as 501 nM and the IC50 [1] is reported as 36 nM.

For O=C1CC2(CCCC2)CC(=O)N1CCCCN1CCN(c2ncccn2)CC1 [buspirone], the “affinity for the 5-HT1A serotonin receptor” value [2] is listed as “potent affinity”.
